Holding throughout (type): in vivo
Test [1] concerns GK rat (Goto-Kakizaki rat). The test is described as follows: Measurement of blood glucose level after loading glucose (dextrose). The protocol: Specifically, each GK rat was allowed to orally ingest the Astilbe thunbergii extract and dextrose and its influence on a change in the blood glucose level was analyzed (Approach 5). In this analysis, an experiment group orally ingesting anagliptin, a DPP-IV inhibitor, was used as a positive control.
[Approach 5: Measurement of Blood Glucose Level after Loading Glucose]
(1) Japanese Pharmacopeia water for injection (a negative control)
(2) A solution having anagliptin dissolved in the water for injection (a positive control); administered at 10 mg/kg body weight
(3) A suspension having, the hydrous ethanol extract of Astilbe thunbergii prepared in the Test Example 2, suspended in the water for injection; administered at 100 mg/kg body weight or 300 mg/kg body weight
Administration and Measurement of Blood Glucose Level
Each GK rat (8-week-old male rat, 7 rats/experimental group) was fasted for 18 hours and its fasting blood glucose level was then measured. Thereafter, the test substance was orally administered to the rat using a disposable gastric probe and a disposable syringe. […] Blood was collected from the tail vein 30, 60, 90 and 120 minutes after the administration of dextrose, and the blood glucose level was measured using a simple type blood glucose meter (NIPRO Freestyle Freedom Lite, FS Blood Glucose Sensor Light, manufactured by Nipro Corporation).

Test [2] concerns GK rat (Goto-Kakizaki rat). Briefly: Measurement of blood glucose level after loading starch. As to conditions: 60 minutes after starch 2 g/kg; acarbose 10 mg/kg body weight oral. The protocol:
Each GK rat (Goto-Kakizaki rat) was allowed to orally ingest an Astilbe thunbergii extract and immediately thereafter to orally ingest starch, and the blood glucose level up to 2 hours later was measured over time (Approach 4). In the case of a GK rat, since hyperglycemia is caused due to its low insulin secretion amount after meal, it is possible to sensitively analyze the influence of drugs on the digestion and absorption of saccharides.
[Approach 4: Measurement of Blood Glucose Level after Loading Starch]
GK rats (male, 5 weeks old) were obtained from Japan SLC, Inc. and preliminarily bred for 1 week before use. Seven rats per experimental group were used.
(1) Japanese Pharmacopeia water for injection (a negative control))
(2) A solution having acarbose dissolved in the water for injection (a positive control); administered at 10 mg/kg body weight
(3) A suspension having the hydrous ethanol extract of Astilbe thunbergii suspended in the water for injection; administered at 100 mg/kg body weight or 300 mg/kg body weight […]
Each GK rat was fasted for 18 hours and its fasting blood glucose level was then measured. […] Blood was collected from the tail vein 30, 60, 90 and 120 minutes after the administration of starch, and the blood glucose level was measured using a simple type blood glucose meter (NIPRO Freestyle Freedom Lite, FS Blood Glucose Sensor Light, manufactured by Nipro Corporation).

The test system of test [3] is GK rat (Goto-Kakizaki rat). The test is described as follows: Measurement of blood glucose level after loading sucrose. As to conditions: 90 minutes after sucrose 2 g/kg; acarbose 10 mg/kg oral. The protocol:
Each GK rat was fasted for 18 hours and its fasting blood glucose level was then measured. Thereafter, the test substance was orally administered to the rat using a disposable gastric probe and a disposable syringe. Two minutes after the administration of the test substance, starch (dissolved in purified water, at 2 g/kg body weight) was administered in a single oral dose. Blood was collected from the tail vein 30, 60, 90 and 120 minutes after the administration of starch, and the blood glucose level was measured using a simple type blood glucose meter (NIPRO Freestyle Freedom Lite, FS Blood Glucose Sensor Light, manufactured by Nipro Corporation).
As described above, since the digestion process from starch to dextrose depends on the enzyme activities of both α-amylase and α-glucosidase, it cannot be ruled out from the results of Test Example 3 that the Astilbe thunbergii extract might inhibit only one of the enzyme activities in the body of an animal (the activity of the other enzyme activity cannot be inhibited). Accordingly, the digestion inhibitory effect of Astilbe thunbergii extract was analyzed using sucrose for which the digestion process depends only on α-glucosidase. Specifically, in the Approach 4, the blood glucose was measured using “sucrose (dissolved in purified water, at 2 g/kg body weight)” instead of “starch (dissolved in purified water, at 2 g/kg body weight)”. […]

For `Cc1cc2ncc(C(=O)NCC(C)(C)NCC(=O)N3CCC[C@H]3C#N)cn2n1` [anagliptin], the “glucose AUC compared with negative control” value in test [1] (0 to 120 minutes after dextrose, anagliptin 10 mg/kg, extract 100 or 300 mg/kg) was “significantly decreases the glucose AUC”. Besides, in test [1] (after dextrose 2 g/kg, anagliptin 10 mg/kg oral, decrease since 60 minutes later), the “time course of blood glucose level compared with negative control” value was “began to decrease earlier than that in the negative control”.
As for `C[C@H]1O[C@H](O[C@H]2[C@H](O)[C@@H](O)[C@@H](O[C@H]3[C@H](O)[C@@H](O)C(O)O[C@@H]3CO)O[C@@H]2CO)[C@H](O)[C@@H](O)[C@@H]1N[C@H]1C=C(CO)[C@@H](O)[C@H](O)[C@H]1O` (stereo partly shown) [acarbose], the blood glucose level in test [2] came to 117 ± 43 mg/dL; in test [3], 161 ± 45 mg/dL.

Values taken from patent US20190076496A1, “POLYSACCHARIDE DIGESTION INHIBITOR” (Q' SAI CO., LTD., priority 2016, published 2019).
